For assay [1], the target named is T1, delta receptors, mouse brain membranes (Mus musculus, UniProt P32300).
T1 construct: from tissue; host or cells: mouse brain membranes
Briefly: GTP[γ]35S binding functional assay, mouse brain membranes. Format: biochemical. Here is the method: (§1) • A. Human 293S cells expressing cloned human μ, δ, and κ receptors and neomycin resistance were grown in suspension at 37° C. and 5% CO2 in shaker flasks containing calcium-free DMEM10% FBS, 5% BCS, 0.1% Pluronic F-68, and 600 μg/ml geneticin. • B. Mouse and rat brains were weighed and rinsed in ice-cold PBS (containing 2.5 mM EDTA, pH 7.4). The brains were homogenized with a polytron for 15 sec (mouse) or 30 sec (rat) in ice-cold lysis buffer (50 mM Tris, pH 7.0, 2.5 mM EDTA, with phenylmethylsulfonyl fluoride added just prior use to […] from a 0.5M stock in DMSO:ethanol). Membrane Preparation
(§2) The agonist activity of the compounds is measured by determining the degree to which the compounds receptor complex activates the binding of GTP to G-proteins to which the receptors are coupled. In the GTP binding assay, GTP[γ]^35S is combined with test compounds and membranes from HEK-293S cells expressing the cloned human opioid receptors or from homogenised rat and mouse brain. Agonists stimulate GTP[γ]^35S binding in these membranes. The EC50 and Emax values of compounds are determined from dose-response curves. Right shifts of the dose response curve by the delta antagonist naltrindole are performed to verify that agonist activity is mediated through delta receptors.
(In general: Binding of GTPγS marks nucleotide exchange on a G protein.)

Assay [2] deals with T2, delta receptors, rat brain membranes (Rattus norvegicus, UniProt P33533).
T2 construct: Rat brain membranes are thawed at 37° C; from tissue; host or cells: rat brain membranes
T2 sequence (P33533 whole entry): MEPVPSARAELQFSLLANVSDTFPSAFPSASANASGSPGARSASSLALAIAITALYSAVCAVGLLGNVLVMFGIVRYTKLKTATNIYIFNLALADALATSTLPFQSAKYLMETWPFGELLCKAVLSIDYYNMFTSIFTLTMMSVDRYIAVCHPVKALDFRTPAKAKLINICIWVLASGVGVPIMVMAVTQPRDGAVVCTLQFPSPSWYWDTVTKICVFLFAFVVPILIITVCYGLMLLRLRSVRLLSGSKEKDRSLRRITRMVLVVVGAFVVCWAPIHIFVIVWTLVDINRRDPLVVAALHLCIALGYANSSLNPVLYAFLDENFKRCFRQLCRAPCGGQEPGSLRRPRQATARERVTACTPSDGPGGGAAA
Briefly: GTP[γ]35S binding functional assay, rat brain membranes. The assay is classed as biochemical. The conditions noted are these: GTPγ35S binding, maximal stimulated binding with 3 μM SNC-80. Here is the method: as §1, §2
Rat brain membranes are thawed at 37° C., passed 3 times through a 25-gauge blunt-end needle and diluted in the GTPγS binding (50 mM Hepes, 20 mM NaOH, 100 mM NaCl, 1 mM EDTA, 5 mM MgCl2, pH 7.4, Add fresh: 1 mM DTT, 0.1% BSA). 120 μM GDP final is added membranes dilutions. […] The basal and maximal stimulated binding are determined in absence and presence of 3 μM SNC-80

Assay [3] has as its target T3, cloned human δ receptor (Homo sapiens, UniProt P41143).
T3 construct: expressed in transfected cells; host or cells: human 293S (HEK-293S) cells, geneticin-selected
Briefly: GTP[γ]35S binding functional assay, HEK-293S membranes expressing cloned human δ receptor (HDELTA). Format: biochemical. Here is the method:
as §1
Cells were pelleted and resuspended in lysis buffer (50 mM Tris, pH 7.0, 2.5 mM EDTA, with PMSF added just prior to use to 0.1 mM from a 0.1 M stock in ethanol), incubated on ice for 15 min, then homogenized with a polytron for 30 sec. The suspension was spun at 1000 g (max) for 10 min at 4° C. The supernatant was saved on ice and the pellets resuspended and spun as before. The supernatants from both spins were combined and spun at 46,000 g(max) for 30 min. The pellets were resuspended in cold Tris buffer (50 mM Tris/Cl, pH 7.0) and spun again. The final pellets were resuspended in membrane buffer (50 mM Tris, 0.32 M sucrose, pH 7.0). Aliquots (1 ml) in polypropylene tubes were frozen in dry ice/ethanol and stored at −70° C. until use. The protein concentrations were determined by a modified Lowry assay with sodium dodecyl sulfate.
as §2

In assay [4] the target is T3, cloned human δ receptor. Kind of assay: Binding assay, membranes of human 293S cells expressing cloned human δ receptor (HDELTA). The conditions noted are these: radioligand displacement.

T1 sequence (P32300 whole entry): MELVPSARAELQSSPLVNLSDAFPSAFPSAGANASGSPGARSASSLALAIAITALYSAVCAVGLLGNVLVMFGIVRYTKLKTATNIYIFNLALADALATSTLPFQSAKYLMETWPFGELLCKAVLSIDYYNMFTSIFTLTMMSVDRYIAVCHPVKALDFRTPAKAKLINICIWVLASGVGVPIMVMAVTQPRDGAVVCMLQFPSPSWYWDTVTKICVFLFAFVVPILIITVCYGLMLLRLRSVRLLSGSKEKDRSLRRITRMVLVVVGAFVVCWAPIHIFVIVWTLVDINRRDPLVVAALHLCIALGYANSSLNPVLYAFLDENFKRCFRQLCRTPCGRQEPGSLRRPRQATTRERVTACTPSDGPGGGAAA
T3 sequence (P41143 whole entry): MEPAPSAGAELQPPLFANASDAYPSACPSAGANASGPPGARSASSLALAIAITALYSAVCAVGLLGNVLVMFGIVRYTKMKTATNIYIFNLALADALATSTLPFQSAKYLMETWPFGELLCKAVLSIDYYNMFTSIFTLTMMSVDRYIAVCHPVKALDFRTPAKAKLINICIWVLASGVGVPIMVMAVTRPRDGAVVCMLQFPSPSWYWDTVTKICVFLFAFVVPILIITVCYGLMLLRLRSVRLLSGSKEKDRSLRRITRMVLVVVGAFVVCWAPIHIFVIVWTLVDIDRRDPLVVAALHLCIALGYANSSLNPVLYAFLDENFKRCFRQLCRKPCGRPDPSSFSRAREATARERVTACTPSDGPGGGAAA

For `CC(C)N(C(=O)c1ccc(C(=C2CCN(Cc3ccncc3)CC2)c2cccc3cccnc23)cc1)C(C)C` [Example 3, N,N-Diisopropyl-4-[1-(1-pyridin-4-ylmethyl-piperidin-4-ylidene)-1-quinolin-8-yl-methyl]-benzamide], the Emax (as a rule, the greatest response seen or fitted, relative to the assay's reference) in assay [1] was 100 to 151%; in assay [2], 97 to 144%; on cloned human δ receptor [3], 96 to 102%. Also, the half-maximal inhibitory concentration (IC50) (as a rule, the concentration that inhibits the measured activity by half) at cloned human δ receptor [4] was in the range of 0.78 to 5 nM.

On to `CC(C)N(C(=O)c1ccc(C(=C2CCN(Cc3ccoc3)CC2)c2cccc3cccnc23)cc1)C(C)C` [Example 6, N,N-Diisopropyl-4-[1-quinolin-8-yl-1-(1-furan-3-ylmethyl-piperidin-4-ylidene)-methyl]-benzamide], for which the figures for the Emax (in assay [1]; in assay [2]; on cloned human δ receptor [3]) were 100 to 151%, 97 to 144% and 96 to 102%, respectively. This compound also registered an IC50 on cloned human δ receptor [4] of 0.78 to 5 nM.

Regarding `CC(C)N(C(=O)c1ccc(C(=C2CCN(Cc3ccc(Br)cc3)CC2)c2cccc3cccnc23)cc1)C(C)C` [Example 11], the results for the maximal response (Emax) (in assay [1]; in assay [2]; on cloned human δ receptor [3]) were 100 to 151%, 97 to 144% and 96 to 102%, respectively. The IC50 on cloned human δ receptor [4] lay within 0.78 to 5 nM.

For the compound `CC(C)N(C(=O)c1ccc(C(=C2CCN(Cc3nccs3)CC2)c2cccc3cccnc23)cc1)C(C)C` [Example 9, N,N-Diisopropyl-4-[1-quinolin-8-yl-1-(1-thiazol-2-ylmethyl-piperidin-4-ylidene)-methyl]-benzamide], the Emax in assay [1] is 100 to 151%; in assay [2], 97 to 144%; on cloned human δ receptor [3], 96 to 102%. The compound further yielded an IC50 on cloned human δ receptor [4] of 0.78 to 5 nM.

Take `CC(C)N(C(=O)c1ccc(C(=C2CCN(Cc3ccco3)CC2)c2cccc3cccnc23)cc1)C(C)C` [Example 7, N,N-Diisopropyl-4-[1-quinolin-8-yl-1-(1-furan-2-ylmethyl-piperidin-4-ylidene)-methyl]-benzamide]: the Emax in assay [1] lay within 100 to 151%; in assay [2] it was 97 to 144%; at cloned human δ receptor [3], 96 to 102%. This compound also came in with an IC50 at cloned human δ receptor [4] of 0.78 to 5 nM.

For `CC(C)N(C(=O)c1ccc(C(=C2CCN(Cc3ncc[nH]3)CC2)c2cccc3cccnc23)cc1)C(C)C` [Example 10, 4-{1-[1-(1H-Imidazol-2-ylmethyl)-piperidin-4-ylidene]-1-quinolin-8-yl-methyl]-N,N-diisopropylbenzamide], the Emax in assay [1] was 100 to 151%; in assay [2], 97 to 144%; at cloned human δ receptor [3] it was 96 to 102%. In addition, the IC50 at cloned human δ receptor [4] fell in the range of 0.78 to 5 nM.

For the compound `CC(C)N(C(=O)c1ccc(C(=C2CCN(Cc3ccccc3)CC2)c2cccc3cccnc23)cc1)C(C)C` [Example 1, 4-[1-(1-Benzyl-piperidin-4-ylidene)-1-quinolin-8-yl-methyl]-N,N-diisopropyl-benzamide], the results for the Emax (in assay [1]; in assay [2]; at cloned human δ receptor [3]) were 100 to 151%, 97 to 144% and 96 to 102%, respectively. This compound also had an IC50 on cloned human δ receptor [4] of 0.78 to 5 nM.

Take `CC(C)N(C(=O)c1ccc(C(=C2CCN(Cc3ccccn3)CC2)c2cccc3cccnc23)cc1)C(C)C` [Example 2, N,N-Diisopropyl-4-[1-(1-pyridin-2-ylmethyl-piperidin-4-ylidene)-1-quinolin-8-yl-methyl]-benzamide]: the figures for the Emax (in assay [1]; in assay [2]; on cloned human δ receptor [3]) were 100 to 151%, 97 to 144% and 96 to 102%, respectively. On cloned human δ receptor [4], this compound had an IC50 of 0.78 to 5 nM.

With `CC(C)N(C(=O)c1ccc(C(=C2CCN(Cc3cccs3)CC2)c2cccc3cccnc23)cc1)C(C)C` [Example 4, N,N-Diisopropyl-4-[1-quinolin-8-yl-1-(1-thiophen-2-ylmethyl-piperidin-4-ylidene)-methyl]-benzamide], the Emax in assay [1] fell in the range of 100 to 151%; in assay [2] it was 97 to 144%; at cloned human δ receptor [3] it was 96 to 102%. The IC50 on cloned human δ receptor [4] lay within 0.78 to 5 nM.

With `COc1ccc(CN2CCC(=C(c3ccc(C(=O)N(C(C)C)C(C)C)cc3)c3cccc4cccnc34)CC2)cc1` [Example 8, N,N-Diisopropyl-4-{1-[1-(4-methoxy-benzyl)-piperidin-4-ylidene]-1-quinolin-8-yl-methyl}-benzamide], the figures for the Emax (in assay [1]; in assay [2]; on cloned human δ receptor [3]) were 100 to 151%, 97 to 144% and 96 to 102%, respectively. For the same compound, the IC50 at cloned human δ receptor [4] lay within 0.78 to 5 nM.

(Values after patent publication US6838468B2, “4-(phenyl-piperdin-4-ylidene methyl)-benzamide derivatives and their use for the treatment of pain, anxiety or gastrointestinal disorders” (AstraZeneca AB, priority 2001, dated 2005).)
